The results in this text go back to patent publication US11535851B2, “Reagents for treatment of hepatitis B virus (HBV) infection and use thereof” (priority 2016, dated 2022).

Molecules are shown by their SMILES.

What all share (type): in vivo
The subject of assay [1] is HBV genotype C. As to the kind of experiment: Serum HBV DNA in HBV-infected PXB chimeric mouse model. As to conditions: treatment arm of daily ETV only; FIG. 7. How it is done: (§1) The in vivo effect of the anti-HBV shmiR or shRNA-expressing AAV particles (as illustrated in FIG. 5) was determined in a PXB chimeric mouse model infected de novo with HBV inoculum. Inhibition of various HBV parameters was assessed: (i) expression of HBV viral transcripts, (ii) extracellular HbsAg, HBcAg and HBeAg, (iii) extracellular and intracellular HBV DNA, and (iv) formation of cccDNA.
(§2) Chimeric PXB mice (PXB-mice®) were obtained from PhoenixBio. All mice were housed individually at 23±5° C. and a humidity of 55±25% humidity, exposed to 12 hours-light/dark cycles and fed and watered ad libitum throughout the experiment. […] To determine baseline HBV infection, blood was taken from mice at days −28, −21, −14 and −7 (i.e., 0, 7, 14 and 21 days post inoculation, respectively), from which human albumin (h-Alb) concentration and serum concentrations of HBV DNA, HBsAg and HBeAg were determined. These permit detection of liver damage in test animals—no adverse reactions were detected.
Remaining whole blood was centrifuged to separate serum for HBV DNA quantification, HbsAg, HBcAg and HBeAg analysis. […] Synthetic HBV DNA was used to determine the concentration of the HBV DNA standard which was then used in quantification of the serum HBV DNA level. […]

In assay [2] the test system is HBV genotype C. Description: Intracellular (liver) HBV DNA by quantitative PCR in PXB chimeric mouse model. The following applies: entecavir or pegylated interferon alone; FIG. 12, left panel.
The subject of a further assay is HBV cccDNA. As to the kind of experiment: Liver HBV cccDNA by real-time PCR in PXB chimeric mouse model. As to conditions: ETV; FIG. 12, right panel. The protocol:
HBV-infected mice treated with saline served as the negative controls. […] For the anti-HBV ddRNAi treatment groups, ssAAV8-HBV-shRNAx3-v1, scAAV8-HBV-shRNAx3-v1 or ssAAV8-HBV-shmiRx3-v1 was administered once at a dose of 2×10E+13 vg/kg by a low pressure tail vein injection at Day 0. Co-treated animals started daily ETV at Day 1 or were dosed the first time with PEG-IFN on Day 4
After the completion of blood sampling on Day 91, all the surviving animals were kept under isoflurane anesthesia and sacrificed by cardiac puncture and exsanguination. Once sacrificed, whole livers were harvested from mice and weighed. A slice of liver of 3 to 5 mm in thickness was obtained from left lateral lobe and cut into cubes approximately 1 to 2 mm on a side. […] After the incubation, the RNAlater® solution was removed and the liver pieces were stored at −80° C. for subsequent quantification of the various hepatic HBV DNA and RNAs as well as expression levels of recombinant AAV derived shRNA or shmiR RNAs.
To determine the level of hepatic HBV DNA following treatment, HBV DNA was extracted from frozen RNAlater®-preserved liver tissue using the DNeasy® Blood & Tissue Kits (Qiagen K. K., Tokyo, Japan). The DNA was dissolved in 200 μL nuclease-free water, after which the concentration of the DNA solution was determined using BioPhotometer 6131 (Eppendorf Co., Ltd., Tokyo, Japan). […]

In another assay the test system is HBV viral transcripts. As to the kind of experiment: Liver HBV RNA levels by RT-QPCR in PXB chimeric mouse model. As to conditions: FIG. 11.
Assay [3] deals with HBV genotype C. Description: Serum HBsAg in HBV-infected PXB chimeric mouse model. The following applies: PXB mice, 91 day study; FIG. 8. The protocol:
as §1, §2
(§3) Serum HBsAg and HBeAg concentrations were determined using ChemiLuminescence ImmunoAssay (CLIA) e.g., as developed by Abbott ([…]® SYSTEM). […]
(§4) Following administration of the treatment (day 0), animals were then incubated for a further 91 days. […] HBeAg levels were measured every other week through Day 70 and then weekly thereafter until the conclusion of the 91 day experiment.

The test system of assay [4] is HBV genotype C. As to the kind of experiment: Serum HBeAg in HBV-infected PXB chimeric mouse model. The protocol:
as §1, §2, §3, §4

From the text for HBV viral transcripts: After the completion of blood sampling on Day 91, all the surviving animals were kept under isoflurane anesthesia and sacrificed by cardiac puncture and exsanguination. Once sacrificed, whole livers were harvested from mice and weighed. A slice of liver of 3 to 5 mm in thickness was obtained from left lateral lobe and cut into cubes approximately 1 to 2 mm on a side. These liver cubes were transferred into a labelled tube and immersed in RNAlater® solution (Ambion, Thermo Fisher Scientific Inc., Waltham, Mass., USA) as quickly as possible. The liver samples were incubated in ≥5 volumes of RNAlater® overnight at 4° C. to allow the solution to penetrate the tissue. After the incubation, the RNAlater® solution was removed and the liver pieces were stored at −80° C. for subsequent quantification of the various hepatic HBV DNA and RNAs as well as expression levels of recombinant AAV derived shRNA or shmiR RNAs.
Using primer/probe sets that are located near each of the RNAi-induced cleavage sites, the levels of HBV RNA was assessed by RT-QPCR (FIG. 11).

For `C=C1[C@H](CO)[C@@H](O)C[C@@H]1n1cnc2c(=O)[nH]c(N)nc21` [entecavir], the “drop in serum HBV DNA levels” value in the assay with HBV genotype C [1] was found to be 2.63 log. Also, in the assay on HBV genotype C [2], the “drop in intracellular DNA levels” value worked out at 2 logs. The “reduction of cccDNA” value in the assay with HBV cccDNA was “slightly more than a one log reduction”. Moreover, in the assay with HBV viral transcripts (monotherapy, through 13 weeks of treatment, RT-QPCR), the “reduction of HBV RNA levels / HBV transcripts” value is given as about 50%. In the assay on HBV viral transcripts (transcripts corresponding to shmiR-6, shmiR-15 and shmiR-12), the “HBV RNA levels (liver)” value is “only modestly reduced”. In addition, the “drop in HBsAg levels” value in the assay with HBV genotype C [3] came to 0.46 log. Also, the “drop in HBeAg levels” value was determined as 0.37 log in the assay on HBV genotype C [4] (PXB mice, 91 day study, FIG. 9) and 0.37 log in the assay with HBV genotype C [4] (entecavir only).
